Values quoted from earlier work in patent US20170049679A1, “ORAL AND DENTAL HYGIENE AND CLEANING AGENTS FOR REDUCING TOOTH DISCOLORATION” (Henkel AG & Co. KGaA, priority 2014, published 2017).
Like-named read-outs stand apart in the source and are kept apart here. Values belong to the compound of their own block, whether it stands above or below them.

Compound: [Cl-].[Cl-].[Zn+2] [Zinc chloride]
Solubility (25° C.): 4320 mg/mL

Solubility (20° C.): 4 mg/mL
Compound: Zinc acetylacetonate

Solubility (in words) (20° C.): Nearly insoluble
Compound: Zinc hydroxycarbonate
